Results as given in patent US20250109127A1, “METHODS OF USE OF PHENOXYPROPYLAMINE COMPOUNDS TO TREAT DEPRESSION” (Minerva Neurosciences, Inc., priority 2013, published 2025).
Values joined by “and” are separate entries in the source; they are usually repeats but may differ in a detail not shown here. Identical values can stand only once. Counter-ions that a name gives are not always drawn.

System: DOPAC release in the rat prefrontal cortex
Test: Microdialysis: DOPAC release in prefrontal cortex after I.P. administration
Format: in vivo
Details: for DOPAC (% of respective basal), individual animal: 0.1 mg/kg I.P., c2-c9 = R#13,14,20,19,25,26,31,32; for DOPAC (% of respective basal), individual animal / DOPAC release, individual animals: hydrochloride; for DOPAC release, MEAN / DOPAC release, individual animals: 3 mg/kg IP; for DOPAC release, MEAN: n = 8; for DOPAC release, individual animals: per animal R#15,16,21,22,27,28,09,10
Protocol: The aim of the study was to evaluate, using microdialysis, the effects of an intraperitoneal (I.P.) administration in rats of three different doses of SON-117 on dopamine and its metabolites, serotonin and its metabolite (5-HIAA), and norepinephrine levels in prefrontal cortex.
Thirty-two adult male Wistar rats were used for the whole study (4 groups of eight animals planned for the study, Table 1).
Surgery was performed on rats weighing about 300 g at the beginning of the experiments. Rats were anaesthetized with Ketamine (50 mg/kg) & Xylazine (15 mg/kg) by intramuscular administration. The animals were placed in a stereotaxic apparatus in the flat-skull position at a constant setting of −3.3 mm between ear bars and the incisor bar. The animals were treated with a local anesthesic (xylocaine 1%, Astra Zeneca) and an analgesic (Temgesic, from Schering Plough, 0.05 mg/kg, s.c.). A rostrocaudal midline incision was made with a lancet to expose the dorsal skull surface. The “stereotaxic zero” was defined by the Bregma in accordance with Paxinos and Watson's atlas (1986). A hole was drilled in the skull with a drill and the meninges were pierced with a sterile needle to implant a CMA12 guide cannula which later received the dialysis probe.
Coordinates used for implanting guide cannula in prefrontal cortex from Bregma were anteroposterior 3.7 mm, mediolateral 0.8 mm, and dorsoventral −2 mm (top of the probe was at −5 mm). The guide cannula was fixed to the skull with two stainless steel screws (1.88 mm outside diameter) anchored. An application of dental cement was added. A plastic collar allowed each animal to be tethered to a Swivel assembly of the CMA 120 awake animal system. Following surgery, rats were kept in individual cages and allowed to recover for a minimum of 3-5 days before the experimentation. The rats were handled and put in plastic bowl for 10 min at least every day to habituate the animals to their new environment for the dialysis. An I.P. administration with saline was also performed every day.
Dialysis probes (CMA12/3 mm, membrane, 20 kD cut-off, Carnegie Medicine, Stockholm, Sweden), were carefully washed before inserting into the guide cannula. The wash was performed with the artificial cerebrospinal fluid (aCSF) medium (NaCl 147 mM, KCl 2.7 mM, CaCl2 1.2 mM, MgCl2 0.85 mM) at room temperature. The dialysis system was then equilibrated at 20° C. at a perfusion rate of 1 μl/min with a Carnegie pump (CMA100). All catheters (FEP tubing, internal volume of 1.2 μl/10 cm, and tubing adaptors) used for microdialysis were treated in the same conditions.
The probes duly prepared were inserted into the guide cannula and the CMA120 Swivel assembly secured to the animal using a plastic collar. Flow through the dialysis probe with aCSF was maintained at a rate of 1 μl/min during the whole experimentation. The first four fractions (corresponding to 2 hours) were discarded to avoid the effects of parenchymal disturbance and to ensure that an approximate steady-state level was reached. Fractions were then collected over a period of 8.5 h during which time the animals remained quiet. The dialysates were automatically collected with an autosampler (microfraction collector CMA 140, Carnegie Medicin) and stored at −80° C. until analysis. […] Perfusion was then maintained for 7 hours with aCSF. The dialysates (30 μl) were collected into 300 μl vials, transferred into dry ice and then kept frozen (−80° C.) until analysis. Frozen samples were shipped to a partner for analysis. At the end of the microdialysis study, a PBS with colored ink was perfused through the probe in order to visualize the dialyzed area.
Catecholamine assay: Concentrations of dopamine, DOPAC, HVA, 5-HIAA, 5-HT, and norepinephrin were determined for each sample by HPLC coupled with electrochemical detection.

SMILES: Cc1nnc(-c2cc3c(OC[C@@H](O)CN4CCC(c5ccc(Cl)c(Cl)c5)CC4)cccc3o2)o1 [SON-117, (S)-1-(4-(3,4-dichlorophenyl)piperidino)-3-(2-(5-methyl-1,3,4-oxadiazol-2-yl)benzo(b)furan-4-yloxy)-2-propanol hydrochloride]
- DOPAC (% of respective basal), individual animal (T30-T1 h): 90.11 % of respective basal and 105.88 % of respective basal and 110.45 % of respective basal and 113.21 % of respective basal and 95.59 % of respective basal and 110.39 % of respective basal and 128.2 % of respective basal and 82.35 % of respective basal
- DOPAC (% of respective basal), individual animal (T1 h 30-T2 h): 101.64 % of respective basal and 109.71 % of respective basal and 83.87 % of respective basal and 449.73 % of respective basal and 128.96 % of respective basal and 72.88 % of respective basal and 153.26 % of respective basal and 56.49 % of respective basal
- DOPAC (% of respective basal), individual animal (T1 h-T1 h 30): 79.47 % of respective basal and 158.61 % of respective basal and 92.14 % of respective basal and 126.98 % of respective basal and 119.92 % of respective basal and 119.37 % of respective basal and 135.5 % of respective basal and 66.42 % of respective basal
- DOPAC (% of respective basal), individual animal (T2 h 30-T3 h): 60.75 % of respective basal and 112.82 % of respective basal and 69.17 % of respective basal and 79.31 % of respective basal and 152.5 % of respective basal and 113.62 % of respective basal and 142.16 % of respective basal and 23.28 % of respective basal
- DOPAC (% of respective basal), individual animal (T2 h-T2 h 30): 176.59 % of respective basal and 43.90 % of respective basal and 80.18 % of respective basal and 123.61 % of respective basal and 132.53 % of respective basal and 78.83 % of respective basal and 142.03 % of respective basal and 39.56 % of respective basal
- DOPAC (% of respective basal), individual animal (T3 h 30-T4 h): 53.09 % of respective basal and 116.09 % of respective basal and 68.59 % of respective basal and 73.49 % of respective basal and 180.72 % of respective basal and 107.13 % of respective basal and 128.91 % of respective basal and 40.67 % of respective basal
- DOPAC (% of respective basal), individual animal (T3 h-T3 h 30): 80.45 % of respective basal and 87.7 % of respective basal and 65.69 % of respective basal and 75.20 % of respective basal and 134.32 % of respective basal and 93.13 % of respective basal and 140.15 % of respective basal and 50.88 % of respective basal
- DOPAC (% of respective basal), individual animal (T4 h 30-T5 h): 304.57 % of respective basal and 95.87 % of respective basal and 47.53 % of respective basal and 20.13 % of respective basal and 163.90 % of respective basal and 118.96 % of respective basal and 157.11 % of respective basal and 54.52 % of respective basal
- DOPAC (% of respective basal), individual animal (T4 h-T4 h 30): 345.4 % of respective basal and 109.04 % of respective basal and 79.96 % of respective basal and 110.35 % of respective basal and 164.47 % of respective basal and 110.81 % of respective basal and 148.54 % of respective basal and 71.60 % of respective basal
- DOPAC (% of respective basal), individual animal (T5 h 30-T6 h): 316.35 % of respective basal and 107.67 % of respective basal and 58.65 % of respective basal and 83.02 % of respective basal and 133.93 % of respective basal and 99.81 % of respective basal and 135.88 % of respective basal and 46.79 % of respective basal
- DOPAC (% of respective basal), individual animal (T5 h-T5 h 30): 342.56 % of respective basal and 121.60 % of respective basal and 61.68 % of respective basal and 79.4 % of respective basal and 139.09 % of respective basal and 96.46 % of respective basal and 144.84 % of respective basal and 50.64 % of respective basal
- DOPAC (% of respective basal), individual animal (T6 h 30-T7 h): 344.74 % of respective basal and 120.8 % of respective basal and 139.44 % of respective basal and 80.52 % of respective basal
- DOPAC (% of respective basal), individual animal (T6 h-T6 h 30): 362.18 % of respective basal and 142.01 % of respective basal and 23.55 % of respective basal and 82.92 % of respective basal and 136.09 % of respective basal and 101.05 % of respective basal and 125.76 % of respective basal and 48.95 % of respective basal
- DOPAC release, MEAN (T0-T30 min): 87.96 % of respective basal
- DOPAC release, MEAN (T30-T1 h): 90.03 % of respective basal
- DOPAC release, individual animals (T30-T1 h): 101.17 % of respective basal and 98.27 % of respective basal and 70.16 % of respective basal and 93.38 % of respective basal and 83.10 % of respective basal and 96.90 % of respective basal and 90.68 % of respective basal and 86.57 % of respective basal
- DOPAC release, MEAN (T1 h 30-T2 h): 109.73 % of respective basal
- DOPAC release, individual animals (T1 h 30-T2 h): 148.73 % of respective basal and 196.92 % of respective basal and 78.99 % of respective basal and 114.35 % of respective basal and 65.05 % of respective basal and 98.86 % of respective basal and 85.04 % of respective basal and 87.02 % of respective basal
- DOPAC release, MEAN (T1 h-T1 h 30): 107.74 % of respective basal
- DOPAC release, individual animals (T1 h-T1 h 30): 183.03 % of respective basal and 117.43 % of respective basal and 106.09 % of respective basal and 101.67 % of respective basal and 88.00 % of respective basal and 90.78 % of respective basal and 85.51 % of respective basal and 89.44 % of respective basal
- DOPAC release, MEAN (T2 h 30-T3 h): 92.73 % of respective basal
- DOPAC release, individual animals (T2 h 30-T3 h): 122.00 % of respective basal and 99.60 % of respective basal and 70.87 % of respective basal and 93.90 % of respective basal and 65.07 % of respective basal and 108.76 % of respective basal and 94.51 % of respective basal and 87.10 % of respective basal
- DOPAC release, MEAN (T2 h-T2 h 30): 95.46 % of respective basal
- DOPAC release, individual animals (T2 h-T2 h 30): 111.98 % of respective basal and 121.35 % of respective basal and 63.44 % of respective basal and 89.04 % of respective basal and 75.53 % of respective basal and 92.91 % of respective basal and 122.88 % of respective basal and 86.52 % of respective basal
- DOPAC release, MEAN (T3 h 30-T4 h): 94.20 % of respective basal
- DOPAC release, individual animals (T3 h 30-T4 h): 111.27 % of respective basal and 111.84 % of respective basal and 80.10 % of respective basal and 101.37 % of respective basal and 69.94 % of respective basal and 101.03 % of respective basal and 82.44 % of respective basal and 95.58 % of respective basal
- DOPAC release, MEAN (T3 h-T3 h 30): 102.63 % of respective basal
- DOPAC release, individual animals (T3 h-T3 h 30): 114.26 % of respective basal and 115.76 % of respective basal and 98.98 % of respective basal and 103.32 % of respective basal and 65.78 % of respective basal and 96.52 % of respective basal and 80.53 % of respective basal and 145.86 % of respective basal
- DOPAC release, MEAN (T4 h 30-T5 h): 90.86 % of respective basal
- DOPAC release, individual animals (T4 h 30-T5 h): 99.05 % of respective basal and 111.45 % of respective basal and 86.88 % of respective basal and 84.18 % of respective basal and 65.99 % of respective basal and 114.07 % of respective basal and 88.90 % of respective basal and 76.33 % of respective basal
- DOPAC release, MEAN (T4 h-T4 h 30): 97.50 % of respective basal
- DOPAC release, individual animals (T4 h-T4 h 30): 114.70 % of respective basal and 111.85 % of respective basal and 76.78 % of respective basal and 121.97 % of respective basal and 69.65 % of respective basal and 96.91 % of respective basal and 88.65 % of respective basal and 99.52 % of respective basal
- DOPAC release, MEAN (T5 h 30-T6 h): 93.52 % of respective basal
- DOPAC release, individual animals (T5 h 30-T6 h): 100.08 % of respective basal and 108.82 % of respective basal and 106.21 % of respective basal and 79.12 % of respective basal and 64.79 % of respective basal and 94.19 % of respective basal and 96.33 % of respective basal and 96.49 % of respective basal
- DOPAC release, MEAN (T5 h-T5 h 30): 105.66 % of respective basal
- DOPAC release, individual animals (T5 h-T5 h 30): 96.11 % of respective basal and 118.05 % of respective basal and 106.17 % of respective basal and 90.70 % of respective basal and 68.08 % of respective basal and 136.44 % of respective basal and 128.39 % of respective basal and 101.33 % of respective basal
- DOPAC release, MEAN (T6 h 30-T7 h): 101.08 % of respective basal
- DOPAC release, individual animals (T6 h 30-T7 h): 100.91 % of respective basal and 128.07 % of respective basal and 103.29 % of respective basal and 98.33 % of respective basal and 67.98 % of respective basal
- DOPAC release, MEAN (T6 h-T6 h 30): 97.93 % of respective basal
- DOPAC release, individual animals (T6 h-T6 h 30): 89.69 % of respective basal and 125.97 % of respective basal and 108.08 % of respective basal and 99.61 % of respective basal and 70.30 % of respective basal and 104.34 % of respective basal and 87.50 % of respective basal
- DOPAC release, MEAN (T-30 min-T0 (before administration)): 94.88 % of respective basal
